According to ChEMBL document CHEMBL4334495, “Design and Biological Evaluation of m-Xylene Thioether-Stapled Short Helical Peptides Targeting the HIV-1 gp41 Hexameric Coiled-Coil Fusion Complex” (J Med Chem, 2019):
The source made the active and inactive calls. The rule behind the calls is not given here. Starred links: 1 amine or outer side, 2 acyl side, 3 side chain; linkers in the order of their positions; H or OH if unused. Positions of bridges follow the written chain, without caps; N, C: chain ends. Non-standard residues stand in square brackets, D forms with d. Residues, ends and D or L forms follow the SMILES beside them. ξ: configuration not given here. mXylylene = c1cc(C[*:1])cc(C[*:2])c1; ξhCys = NC(CCS)C(=O)O

What was measured:
[1] = tested on: Human immunodeficiency virus 1; test: Antiviral activity against X4 tropic HIV-1 subtype-B 3B infected in human MT2 cells or CEMx174 5.25 M7 cells assessed as reduction in p24 Gag protein production measured at 4 days post-infection by ELISA; assay type: functional, cell-based, HIV-1 group M; conditions: Human immunodeficiency virus 1, 3B, 96 h
[2] = tested on: Human immunodeficiency virus 1; test: Antiviral activity against R5 tropic HIV-1 subtype-B Bal infected in human MT2 cells or CEMx174 5.25 M7 cells assessed as reduction in p24 Gag protein production measured at 4 days post-infection by ELISA; assay type: functional, cell-based, HIV-1 group M; conditions: Human immunodeficiency virus 1, Bal, 96 h
[3] = target: Envelope glycoprotein gp160 (Human immunodeficiency virus 1) (UniProt Q6QLK5); test: Binding affinity to HIV1 GP41 using GP41 NHR derived N36 peptide assessed as formation of secondary structure at 10 uM incubated for 30 mins by CD spectroscopy
[4] = target: Envelope glycoprotein gp160 (Human immunodeficiency virus 1) (UniProt Q6QLK5); test: Binding affinity to HIV1 GP41 using GP41 NHR derived N36 peptide assessed as melting temperature at 10 uM incubated for 30 mins by CD spectroscopy
[5] = target: Envelope glycoprotein gp160 (Human immunodeficiency virus 1) (UniProt Q6QLK5); test: Binding affinity to HIV1 GP41 using GP41 NHR derived N36 peptide assessed as formation of oligomeric complex at 100 uM incubated for 30 mins by Coomassie blue R250 staining based Native-PAGE analysis
[6] = target: Envelope glycoprotein gp160 (Human immunodeficiency virus 1) (UniProt Q6QLK5); test: Binding affinity to HIV1 GP41 using GP41 NHR derived N36 peptide assessed as molecular weight at 150 uM incubated for 30 mins by sedimentation Velocity analysis
[7] = target: Envelope glycoprotein gp160 (Human immunodeficiency virus 1) (UniProt Q6QLK5); test: Binding affinity to HIV1 GP41 using GP41 NHR derived N36 peptide at 500 uM incubated for 30 mins by size exclusion HPLC analysis
[8] = Cytotoxicity against human TZM-bl cells assessed as reduction in viability after 2 days by XTT assay; assay type: cell-based

Envelope glycoprotein gp160 (Human immunodeficiency virus 1), sequence (Q6QLK5 1-814): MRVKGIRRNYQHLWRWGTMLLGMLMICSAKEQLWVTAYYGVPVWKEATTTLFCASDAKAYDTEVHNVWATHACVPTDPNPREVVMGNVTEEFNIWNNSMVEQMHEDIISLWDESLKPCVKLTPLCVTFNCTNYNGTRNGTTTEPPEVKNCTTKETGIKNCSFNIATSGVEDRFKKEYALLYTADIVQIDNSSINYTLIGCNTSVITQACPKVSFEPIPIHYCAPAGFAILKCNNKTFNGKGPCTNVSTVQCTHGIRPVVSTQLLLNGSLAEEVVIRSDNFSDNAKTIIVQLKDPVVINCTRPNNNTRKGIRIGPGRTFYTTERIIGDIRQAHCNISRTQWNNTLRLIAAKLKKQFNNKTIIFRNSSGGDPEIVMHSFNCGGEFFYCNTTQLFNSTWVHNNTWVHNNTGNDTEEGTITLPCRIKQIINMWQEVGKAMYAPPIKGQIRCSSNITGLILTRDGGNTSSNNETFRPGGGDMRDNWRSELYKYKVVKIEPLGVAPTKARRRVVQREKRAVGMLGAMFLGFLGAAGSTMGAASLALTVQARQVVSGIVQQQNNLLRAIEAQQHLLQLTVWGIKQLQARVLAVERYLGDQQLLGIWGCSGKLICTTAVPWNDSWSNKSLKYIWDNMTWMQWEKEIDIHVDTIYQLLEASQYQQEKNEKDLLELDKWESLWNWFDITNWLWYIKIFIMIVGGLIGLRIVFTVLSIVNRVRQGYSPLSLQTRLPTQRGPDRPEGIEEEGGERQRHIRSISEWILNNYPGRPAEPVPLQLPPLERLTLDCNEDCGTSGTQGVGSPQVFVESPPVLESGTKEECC

| EC50 [1] [µM] | EC50 [2] [µM] | Activity [3] | Tm [4] [°C] | Activity [5] | Activity [6] [kDa] | Activity [7] | Compound | CC50 at 48 h [8] [µM] |
| --- | --- | --- | --- | --- | --- | --- | --- | --- |
| 0.0444 | 0.0691 | Active | 52.4 | Active | 8.4 | Active | CC[C@H](C)[C@H](NC(C)=O)C(=O)N[C@@H](CCC(=O)O)C(=O)N[C@@H](C)C(=O)N[C@@H](CC(C)C)C(=O)N[C@H](C(=O)NC1CCSCc2cccc(c2)CSCCC(C(=O)N[C@@H](CCC(N)=O)C(=O)N[C@@H](CCC(N)=O)C(=O)N[C@@H](CCC(=O)O)C(=O)N[C@@H](CCCCN)C(=O)N[C@@H](CC(N)=O)C(=O)N[C@@H](CCC(=O)O)C(=O)N[C@@H](C)C(=O)N[C@@H](C)C(=O)N[C@@H](CC(C)C)C(=O)N[C@@H](CCCNC(=N)N)C(=O)N[C@@H](CCC(=O)O)C(=O)N[C@@H](CC(C)C)C(N)=O)NC(=O)[C@H](CCC(N)=O)NC(=O)[C@H](C)NC(=O)[C@H](C)NC1=O)[C@@H](C)CC (stereo partly specified) (Ac-IEALI[ξhCys]AAQ[ξhCys]QQEKNEAALREL-NH2; linker 6-10 via mXylylene) |  |
| 0.0184 | 0.0277 | Active | 56.9 | Active | 18.7 | Active | CC[C@H](C)[C@H](NC(C)=O)C(=O)N[C@@H](CCC(=O)O)C(=O)N[C@@H](C)C(=O)N[C@@H](CC(C)C)C(=O)N[C@H](C(=O)NC1CCSCc2cccc(c2)CSCCC(C(=O)N[C@@H](CCC(N)=O)C(=O)N[C@@H](CCC(N)=O)C(=O)N[C@@H](CCCNC(=N)N)C(=O)N[C@@H](CCCCN)C(=O)N[C@@H](CC(N)=O)C(=O)N[C@@H](CCC(=O)O)C(=O)N[C@@H](CCC(=O)O)C(=O)N[C@@H](C)C(=O)N[C@@H](CC(C)C)C(=O)N[C@@H](CCCNC(=N)N)C(=O)N[C@@H](CCC(=O)O)C(=O)N[C@@H](CC(C)C)C(N)=O)NC(=O)[C@H](CCC(N)=O)NC(=O)[C@H](C)NC(=O)[C@H](C)NC1=O)[C@@H](C)CC (stereo partly specified) (Ac-IEALI[ξhCys]AAQ[ξhCys]QQRKNEEALREL-NH2; linker 6-10 via mXylylene) | > 800 |
|  |  |  | 48.2 |  |  |  | Ac-IEALIRAAQEQQEKNEAALREL-NH2 |  |
